Test results: US20250064773A1, “TARGETING ERO1 ALPHA WITH AURONE DERIVATIVES” (West Virginia University Board of Governors on behalf of …, priority 2021, published 2025)

How the values were obtained:
ERO1α = biological target: T1, ERO1α (Homo sapiens, UniProt Q96HE7); assay: Cellular thermal shift assay (CETSA) in PC-9 cells, ERO1α; assay type: cell-based; settings: 100 μM, 1 hour at 37° C.
T1 construct: endogenous in cells; host or cells: PC-9
T1 sequence (Q96HE7 24-468): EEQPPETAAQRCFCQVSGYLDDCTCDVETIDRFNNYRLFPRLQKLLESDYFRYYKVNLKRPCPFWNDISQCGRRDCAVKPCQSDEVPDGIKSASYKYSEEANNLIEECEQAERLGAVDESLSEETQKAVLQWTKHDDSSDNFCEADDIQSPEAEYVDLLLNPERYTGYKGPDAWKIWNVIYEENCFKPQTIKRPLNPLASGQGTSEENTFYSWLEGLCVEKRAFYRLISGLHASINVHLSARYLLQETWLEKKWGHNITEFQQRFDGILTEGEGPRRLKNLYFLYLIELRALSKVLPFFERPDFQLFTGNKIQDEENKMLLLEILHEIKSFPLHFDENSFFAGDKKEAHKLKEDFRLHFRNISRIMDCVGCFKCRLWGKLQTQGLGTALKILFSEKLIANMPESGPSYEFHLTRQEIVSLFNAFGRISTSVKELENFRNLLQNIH
From the text: To date activity of T151742 towards other flavoenzymes has not been identified at this time. We utilized the Cellular Thermal Shift Assay (CETSA) to determine target engagement of T151742 in vitro using the non-small cell lung cancer (NSCLC) cell line PC-9. The EGFR driven PC-9 cell line was chosen as new treatment strategies are needed in EGFR driven NSCLC as most patients relapse and become resistant to current targeted therapies with development of further mutations such as T790M, C797S as well as emergence of EGFR independent tumors^42, 43. […] First, we determined the aggregation temperature (Tagg) of ERO1α, ERO1β, and LSD-1, which are all FAD dependent enzymes and potential in vitro targets of T15742. […]
Upon addition of T151742, Tagg was quantified for ERO1α, ERO1β, and LSD-1. Quantification of the average of n=3 independent experiments based on western blot analysis for ERO1α, ERO1β, and LSD-1. […] Cellular viability was determined by MTT assay. n=3 independent experiments performed in quadruplicates. ****p<0.0001; by two-way ANOVA.
Cell Lines: PC-9 cell line used was obtained from Sigma Aldrich and grown in RPMI 1640 medium with 10% fetal bovine serum and 1% penicillin/streptomycin. […] Plate was then read on the BioTek Cytation 5 at 530/590 nm. […]

myeloma cells lines = assay: MTT viability assay, myeloma cell lines; assay type: cell-based

SMILES: CN(C)c1ccc(/C=C2\Oc3cc(O)ccc3C2=O)cc1 [Compound T151742]
- Tagg for ERO1α (ERO1α): > 60 °C
- shift of Tagg for ERO1α (ERO1α): ~6 degrees
- IC50 (myeloma cells lines): 7 to 9 µM
